Measured values: patent US20130274127A1, “GENE EXPRESSION MARKERS FOR PREDICTION OF RESPONSE TO PHOSPHOINOSITIDE 3-KINASE INHIBITORS” (GENOMIC HEALTH, INC., priority 2012, published 2013)
Where two headings read alike, the source gives them in different places.

Columns and labels:
[1] = test system: NCI-60 tumor cell line collection; test: NCI-60 in vitro drug sensitivity testing, whole panel; assay type: cell-based, human; settings: for GI50: Homo sapiens, all 60 NCI-60 cell lines
From the text: The NCI-60 tumor cell line collection is a panel of 60 diverse human cancer cell lines.
(§1) Cell lines used in this study were obtained from the National Cancer Institute Developmental Therapeutics program (NCI DTP) and were maintained in RPMI 1640 media (Invitrogen, Grand Island, N.Y.) containing 10% Fetal Bovine Serum (ATCC, Manassas, Va.). Cell lines were used within six months of receipt from the NCI DTP, abrogating the need for reauthentication.
(§2) 14, 2010 and Aug. 9, 2010.

[2] = test system: BT-549; test: NCI-60 in vitro drug sensitivity testing (SRB); assay type: cell-based; settings: Homo sapiens, BT-549, read-out: GDC-0941 GI50
From the text: as §1, §2

[3] = test system: HCC-2998; test: NCI-60 in vitro drug sensitivity testing (SRB); assay type: cell-based; settings: Homo sapiens, read-out: GDC-0941 GI50
From the text: as §1, §2

[4] = test system: HS 578T; test: NCI-60 in vitro drug sensitivity testing (SRB); assay type: cell-based; settings: Homo sapiens, read-out: GDC-0941 GI50
From the text: as §1, §2

[5] = test system: SR; test: NCI-60 in vitro drug sensitivity testing (SRB); assay type: cell-based; settings: Homo sapiens, read-out: GDC-0941 GI50
From the text: as §1, §2

[6] = test system: HOP-92; test: NCI-60 in vitro drug sensitivity testing (SRB); assay type: cell-based; settings: Homo sapiens, HOP-92, read-out: GDC-0941 GI50
From the text: as §1, §2

[7] = test system: SF-268; test: NCI-60 in vitro drug sensitivity testing (SRB); assay type: cell-based; settings: Homo sapiens, SF-268, read-out: GDC-0941 GI50
From the text: as §1, §2

[8] = test system: SK-MEL-5; test: NCI-60 in vitro drug sensitivity testing (SRB); assay type: cell-based; settings: Homo sapiens, SK-MEL-5, read-out: GDC-0941 GI50
From the text: as §1, §2

[9] = test system: NCI-H460; test: NCI-60 in vitro drug sensitivity testing (SRB); assay type: cell-based; settings: Homo sapiens, NCI-H460, read-out: GDC-0941 GI50
From the text: as §1, §2

[10] = test system: EKVX; test: NCI-60 in vitro drug sensitivity testing (SRB); assay type: cell-based; settings: Homo sapiens, read-out: GDC-0941 GI50
From the text: as §1, §2

[11] = test system: RXF 393; test: NCI-60 in vitro drug sensitivity testing (SRB); assay type: cell-based; settings: Homo sapiens, RXF 393, read-out: GDC-0941 GI50
From the text: as §1, §2

[12] = test system: UACC-62; test: NCI-60 in vitro drug sensitivity testing (SRB); assay type: cell-based; settings: Homo sapiens, UACC-62, read-out: GDC-0941 GI50
From the text: as §1, §2

[13] = test system: TK-10; test: NCI-60 in vitro drug sensitivity testing (SRB); assay type: cell-based; settings: Homo sapiens, TK-10, read-out: GDC-0941 GI50
From the text: as §1, §2

[14] = test system: SW-620; test: NCI-60 in vitro drug sensitivity testing (SRB); assay type: cell-based; settings: Homo sapiens, SW-620, read-out: GDC-0941 GI50
From the text: as §1, §2

[15] = test system: UACC-257; test: NCI-60 in vitro drug sensitivity testing (SRB); assay type: cell-based; settings: Homo sapiens, UACC-257, read-out: GDC-0941 GI50
From the text: as §1, §2

[16] = test system: SN12C; test: NCI-60 in vitro drug sensitivity testing (SRB); assay type: cell-based; settings: Homo sapiens, read-out: GDC-0941 GI50
From the text: as §1, §2

[17] = test system: SF-539; test: NCI-60 in vitro drug sensitivity testing (SRB); assay type: cell-based; settings: Homo sapiens, SF-539, read-out: GDC-0941 GI50
From the text: as §1, §2

[18] = test system: T-47D; test: NCI-60 in vitro drug sensitivity testing (SRB); assay type: cell-based; settings: Homo sapiens, T47D, read-out: GDC-0941 GI50
From the text: as §1, §2

[19] = test system: MDA-MB-468; test: NCI-60 in vitro drug sensitivity testing (SRB); assay type: cell-based; settings: Homo sapiens, MDA-MB-468, read-out: GDC-0941 GI50
From the text: as §1, §2

[20] = test system: A498; test: NCI-60 in vitro drug sensitivity testing (SRB); assay type: cell-based; settings: Homo sapiens, A498, read-out: GDC-0941 GI50
From the text: as §1, §2

[21] = test system: RPMI-8226; test: NCI-60 in vitro drug sensitivity testing (SRB); assay type: cell-based; settings: Homo sapiens, RPMI-8226, read-out: GDC-0941 GI50
From the text: as §1, §2

[22] = test system: MALME-3M; test: NCI-60 in vitro drug sensitivity testing (SRB); assay type: cell-based; settings: Homo sapiens, read-out: GDC-0941 GI50
From the text: as §1, §2

[23] = test system: SK-MEL-2; test: NCI-60 in vitro drug sensitivity testing (SRB); assay type: cell-based; settings: Homo sapiens, SK-MEL-2, read-out: GDC-0941 GI50
From the text: as §1, §2

[24] = test system: MDA-MB-435; test: NCI-60 in vitro drug sensitivity testing (SRB); assay type: cell-based; settings: Homo sapiens, MDA-MB-435, read-out: GDC-0941 GI50
From the text: as §1, §2

[25] = test system: HCT-15; test: NCI-60 in vitro drug sensitivity testing (SRB); assay type: cell-based; settings: Homo sapiens, HCT-15, read-out: GDC-0941 GI50
From the text: as §1, §2

[26] = test system: NCI/ADR-RES; test: NCI-60 in vitro drug sensitivity testing (SRB); assay type: cell-based; settings: Homo sapiens, read-out: GDC-0941 GI50
From the text: as §1, §2

[27] = test system: SNB-75; test: NCI-60 in vitro drug sensitivity testing (SRB); assay type: cell-based; settings: Homo sapiens, SNB-75, read-out: GDC-0941 GI50
From the text: as §1, §2

[28] = test system: IGROV1; test: NCI-60 in vitro drug sensitivity testing (SRB); assay type: cell-based; settings: Homo sapiens, IGROV-1, read-out: GDC-0941 GI50
From the text: as §1, §2

[29] = test system: PC-3; test: NCI-60 in vitro drug sensitivity testing (SRB); assay type: cell-based; settings: Homo sapiens, PC-3, read-out: GDC-0941 GI50
From the text: as §1, §2

CS(=O)(=O)N1CCN(Cc2cc3nc(-c4cccc5[nH]ncc45)nc(N4CCOCC4)c3s2)CC1 [GDC-0941]
GI50 ([1]; read-out: GI50 values, range over the panel): 11 to 3800 nM
GI50 ([1]; read-out: Mean GI50 for all cell lines): 660 nM
Anti-proliferative activity across the panel ([1]; nine tumor types represented in the NCI-60 cell line panel): broad anti-proliferative activity
GI50 [2]: 32 nM
GI50 [3]: 1320 nM
GI50 [4]: 71 nM
GI50 [5]: 1290 nM
GI50 [6]: 83 nM
GI50 [7]: 741 nM
GI50 [8]: 1290 nM
GI50 [9]: 204 nM
GI50 [10]: 195 nM
GI50 [11]: 251 nM
GI50 [12]: 112 nM
GI50 [13]: 550 nM
GI50 [14]: 832 nM
GI50 [15]: 78 nM
GI50 [16]: 229 nM
GI50 [17]: 251 nM
GI50 [18]: 11 nM
GI50 [19]: 110 nM
GI50 [20]: 123 nM
GI50 [21]: 3470 nM
GI50 [22]: 138 nM
GI50 [23]: 759 nM
GI50 [24]: 204 nM
GI50 [25]: 209 nM
GI50 [26]: 2040 nM
GI50 [27]: 14 nM
GI50 [28]: 26 nM
GI50 [29]: 138 nM
